For experiment [1], the target named is GDP-bound NRAS wild-type protein (Homo sapiens, UniProt P01111). The experiment is described as follows: Binding to NRAS by surface plasmon resonance (SPR), Single Cycle Kinetics. Particulars: SPR; GDP-bound NRAS wild-type protein vs GDP-bound KRAS wild-type protein; KD ratio class.
Experiment [2] deals with GDP-bound HRAS wild-type protein (Homo sapiens, UniProt P01112). The experiment is described as follows: Binding to HRAS by surface plasmon resonance (SPR), Single Cycle Kinetics. Particulars: SPR; GDP-bound HRAS wild-type protein vs GDP-bound KRAS wild-type protein; KD ratio class.
GDP-bound HRAS wild-type protein, sequence (P01112 whole entry): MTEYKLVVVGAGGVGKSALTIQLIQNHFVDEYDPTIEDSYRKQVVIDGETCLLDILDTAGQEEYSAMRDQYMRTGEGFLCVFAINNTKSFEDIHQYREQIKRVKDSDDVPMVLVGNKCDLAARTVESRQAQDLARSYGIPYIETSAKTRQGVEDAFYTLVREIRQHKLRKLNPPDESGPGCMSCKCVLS
Experiment [3] deals with GDP-bound KRAS wild-type protein (Homo sapiens, UniProt P01116). The experiment is described as follows: Binding to KRAS by surface plasmon resonance (SPR), Single Cycle Kinetics. Particulars: SPR, Single Cycle Kinetics, 1:1 binding model; GDP-bound KRAS wild-type protein; read-out: KRAS KD.
GDP-bound KRAS wild-type protein, sequence (P01116 whole entry): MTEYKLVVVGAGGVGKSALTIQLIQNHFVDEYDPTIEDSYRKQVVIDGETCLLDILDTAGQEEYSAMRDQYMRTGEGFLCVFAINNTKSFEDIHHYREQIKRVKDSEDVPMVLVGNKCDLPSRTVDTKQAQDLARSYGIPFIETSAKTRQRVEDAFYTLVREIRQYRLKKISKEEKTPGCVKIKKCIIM
Experiment [4] has as its system human lung cancer strain NCI-H441.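 Further: cell proliferation inhibition after four days measured by CellTiter-Glo.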

SMILES strings stand for the structures.

GDP-bound NRAS wild-type protein, sequence (P01111 whole entry): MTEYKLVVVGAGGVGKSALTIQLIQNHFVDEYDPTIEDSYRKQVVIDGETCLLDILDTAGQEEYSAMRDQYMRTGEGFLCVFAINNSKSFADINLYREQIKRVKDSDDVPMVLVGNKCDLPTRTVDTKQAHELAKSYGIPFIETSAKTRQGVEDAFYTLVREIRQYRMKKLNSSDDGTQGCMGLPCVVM

Take `CCO[C@@H]1C[C@H]2C(=O)NC3(CCC3)C(=O)N(C)[C@@H](C3CCCC3)C(=O)N(C)[C@H](C(=O)N3CCCCC3)CC(=O)N(C)[C@@H](C)C(=O)N[C@@H]([C@@H](C)CC)C(=O)N(C)CC(=O)N(C)[C@H]3C/C=C\CCN(C3=O)[C@@H](Cc3ccc(C(F)(F)F)cc3)C(=O)N(C)CC(=O)N[C@@H](CCc3cc(F)c(C(F)(F)F)c(F)c3)C(=O)N2C1` [PP1292]: the “NRAS/KRAS (ratio of KD value for NRAS to KD value for KRAS)” value in experiment [1] was “A (a compound having 10 or more and less than 20 is denoted as A)”. Besides, the “HRAS/KRAS (ratio of KD value for HRAS to KD value for KRAS)” value in experiment [2] is “A (a compound having 10 or more and less than 20 is denoted as A)”. Moreover, the Kd in experiment [3] came out at 0.16 nM. For the same compound, 24.6 nM corresponded to half-maximal inhibition in experiment [4] (IC50).

On to `CCC[C@H]1C(=O)N[C@@H]([C@@H](C)CC)C(=O)N(C)CC(=O)N(C)[C@H]2C/C=C\CCN(C2=O)[C@@H](Cc2ccc(C(F)(F)F)cc2)C(=O)N(C)CC(=O)N[C@@H](CCc2cc(F)c(C(F)(F)F)c(F)c2)C(=O)N2C[C@H](OCC)C[C@H]2C(=O)NC2(CCC2)C(=O)N(C)[C@@H](C2CCCC2)C(=O)N(C)[C@H](C(=O)N2CCCCC2)CC(=O)N1C` [PP1294], for which the “NRAS/KRAS (ratio of KD value for NRAS to KD value for KRAS)” value in experiment [1] was “A (a compound having 10 or more and less than 20 is denoted as A)”. In addition, in experiment [2], the “HRAS/KRAS (ratio of KD value for HRAS to KD value for KRAS)” value is “A (a compound having 10 or more and less than 20 is denoted as A)”. For the same compound, the Kd in experiment [3] is 0.29 nM. In experiment [4], this compound registered an IC50 of 10 nM.

Regarding `CCO[C@@H]1C[C@H]2C(=O)NC3(CCC3)C(=O)N(C)[C@@H](C3CCCC3)C(=O)N(C)[C@H](C(=O)N3CCCC3)CC(=O)N(C)[C@@H](CC(C)C)C(=O)N[C@@H]([C@@H](C)CC)C(=O)N(C)CC(=O)N(C)[C@H]3C/C=C\CCN(C3=O)[C@@H](Cc3ccc(C(F)(F)F)cc3)C(=O)N(C)CC(=O)N[C@@H](CCc3cc(F)c(C(F)(F)F)c(F)c3)C(=O)N2C1` [PP1295, (2S,8S,12R,14S,20S,23S,27S,30S,36S,38Z)-20-cyclopentyl-8-[2-[3,5-difluoro-4-(trifluoromethyl)phenyl]ethyl]-12-ethoxy-27-isobutyl-4,19,22,26,32,35-hexamethyl-30-[(1S)-1-methylpropyl]-23-(pyrrolidine-1-carbonyl)-2-[[4-(trifluoromethyl)phenyl]methyl]spiro[1,4,7,10,16,19,22,26,29,32,35-undecazatricyclo[34.5.1.0^10,14]dotetracont-38-ene-17,1′-cyclobutane]-3,6,9,15,18,21,25,28,31,34,42-undecone], in experiment [1], the “NRAS/KRAS (ratio of KD value for NRAS to KD value for KRAS)” value is “AA (a compound having 20 or more is denoted as AA)”. Besides, in experiment [2], the “HRAS/KRAS (ratio of KD value for HRAS to KD value for KRAS)” value was “A (a compound having 10 or more and less than 20 is denoted as A)”. The Kd in experiment [3] turned out to be 0.12 nM. Further, the IC50 in experiment [4] came to 6.2 nM.

On to `CCO[C@@H]1C[C@H]2C(=O)NC3(CCC3)C(=O)N(C)[C@@H](C3CCCC3)C(=O)N(C)[C@H](C(=O)N3CCCC3)CC(=O)N(C)[C@@H](CC3CC3)C(=O)N[C@@H]([C@@H](C)CC)C(=O)N(C)CC(=O)N(C)[C@H]3C/C=C\CCN(C3=O)[C@@H](Cc3ccc(C(F)(F)F)cc3)C(=O)N(C)CC(=O)N[C@@H](CCc3cc(F)c(C(F)(F)F)c(F)c3)C(=O)N2C1` [PP1296], for which the “NRAS/KRAS (ratio of KD value for NRAS to KD value for KRAS)” value in experiment [1] is given as “AA (a compound having 20 or more is denoted as AA)”. The “HRAS/KRAS (ratio of KD value for HRAS to KD value for KRAS)” value in experiment [2] was “A (a compound having 10 or more and less than 20 is denoted as A)”. The Kd in experiment [3] worked out at 0.12 nM. Further, half-maximal inhibition in experiment [4] (IC50) was put at 14.7 nM.

For `CCO[C@@H]1C[C@H]2C(=O)NC3(CCC3)C(=O)N(C)[C@@H](C3CCCC3)C(=O)N(C)[C@H](C(=O)N3CCCC3)CC(=O)N(C)[C@@H](C)C(=O)N[C@@H]([C@@H](C)CC)C(=O)N(C)CC(=O)N(C)[C@H]3C/C=C\CCN(C3=O)[C@@H](Cc3ccc(C(F)(F)F)cc3)C(=O)N(C)CC(=O)N[C@@H](CCc3cc(F)c(C(F)(F)F)c(F)c3)C(=O)N2C1` [PP1297, (2S,8S,12R,14S,20S,23S,27S,30S,36S,38Z)-20-cyclopentyl-8-[2-[3,5-difluoro-4-(trifluoromethyl)phenyl]ethyl]-12-ethoxy-4,19,22,26,27,32,35-heptamethyl-30-[(1S)-1-methylpropyl]-23-(pyrrolidine-1-carbonyl)-2-[[4-(trifluoromethyl)phenyl]methyl]spiro[1,4,7,10,16,19,22,26,29,32,35-undecazatricyclo[34.5.1.0^10,14]dotetracont-38-ene-17,1′-cyclobutane]-3,6,9,15,18,21,25,28,31,34,42-undecone], the “NRAS/KRAS (ratio of KD value for NRAS to KD value for KRAS)” value in experiment [1] is reported as “AA (a compound having 20 or more is denoted as AA)”. The “HRAS/KRAS (ratio of KD value for HRAS to KD value for KRAS)” value in experiment [2] is “A (a compound having 10 or more and less than 20 is denoted as A)”. In experiment [3], the Kd came out at 0.087 nM. For the same compound, it took 23.1 nM to reach half-maximal inhibition in experiment [4] (IC50).

For the compound `CCO[C@@H]1C[C@H]2C(=O)NC3(CCC3)C(=O)N(C)[C@@H](C3CCCC3)C(=O)N(C)[C@H](C(=O)N3CCCC3)CC(=O)N(C)[C@@H](CC(F)F)C(=O)N[C@@H]([C@@H](C)CC)C(=O)N(C)CC(=O)N(C)[C@H]3C/C=C\CCN(C3=O)[C@@H](Cc3ccc(C(F)(F)F)cc3)C(=O)N(C)CC(=O)N[C@@H](CCc3cc(F)c(C(F)(F)F)c(F)c3)C(=O)N2C1` [PP1298], the “NRAS/KRAS (ratio of KD value for NRAS to KD value for KRAS)” value in experiment [1] is on record as “AA (a compound having 20 or more is denoted as AA)”. In addition, the “HRAS/KRAS (ratio of KD value for HRAS to KD value for KRAS)” value in experiment [2] is “A (a compound having 10 or more and less than 20 is denoted as A)”. Moreover, the Kd in experiment [3] was determined as 0.13 nM. In experiment [4], the IC50 was found to be 11.4 nM.

`CCC[C@H]1C(=O)N[C@@H]([C@@H](C)CC)C(=O)N(C)CC(=O)N(C)[C@H]2C/C=C\CCN(C2=O)[C@@H](Cc2ccc(C(F)(F)F)cc2)C(=O)N(C)CC(=O)N[C@@H](CCc2cc(F)c(C(F)(F)F)c(F)c2)C(=O)N2C[C@H](OCC)C[C@H]2C(=O)NC2(CCC2)C(=O)N(C)[C@@H](C2CCCC2)C(=O)N(C)[C@H](C(=O)N2CCCC2)CC(=O)N1C` [PP1299, (2S,8S,12R,14S,20S,23S,27S,30S,36S,38Z)-20-cyclopentyl-8-[2-[3,5-difluoro-4-(trifluoromethyl)phenyl]ethyl]-12-ethoxy-4,19,22,26,32,35-hexamethyl-30-[(1S)-1-methylpropyl]-27-propyl-23-(pyrrolidine-1-carbonyl)-2-[[4-(trifluoromethyl)phenyl]methyl]spiro[1,4,7,10,16,19,22,26,29,32,35-undecazatricyclo[34.5.1.0^10,14]dotetracont-38-ene-17,1′-cyclobutane]-3,6,9,15,18,21,25,28,31,34,42-undecone]: the “NRAS/KRAS (ratio of KD value for NRAS to KD value for KRAS)” value in experiment [1] was “A (a compound having 10 or more and less than 20 is denoted as A)”. Also, in experiment [2], the “HRAS/KRAS (ratio of KD value for HRAS to KD value for KRAS)” value was “A (a compound having 10 or more and less than 20 is denoted as A)”. Besides, in experiment [3], the Kd is 0.14 nM. The compound also had a 50% inhibitory concentration (IC50) in experiment [4] of 11 nM.

Regarding `CCC[C@H]1C(=O)N[C@@H]([C@@H](C)CC)C(=O)N(C)CC(=O)N(C)[C@H]2C/C=C\CCN(C2=O)[C@@H](Cc2ccc(C(F)(F)F)cc2)C(=O)N(C)CC(=O)N[C@@H](CCc2cc(F)c(C(F)(F)F)c(F)c2)C(=O)N2C[C@H](OCC)C[C@H]2C(=O)NC2(CCC2)C(=O)N(C)[C@@H](C2CCCC2)C(=O)N(C)[C@H](C(=O)N2CC3CCC(C2)O3)CC(=O)N1C` [PP1315], in experiment [1], the “NRAS/KRAS (ratio of KD value for NRAS to KD value for KRAS)” value is recorded as “AA (a compound having 20 or more is denoted as AA)”. Moreover, the “HRAS/KRAS (ratio of KD value for HRAS to KD value for KRAS)” value in experiment [2] is “A (a compound having 10 or more and less than 20 is denoted as A)”. Besides, the Kd in experiment [3] is 0.34 nM. The compound also yielded an IC50 in experiment [4] of 34.5 nM.

In the case of `CCO[C@@H]1C[C@H]2C(=O)NC3(CCC3)C(=O)N(C)[C@@H](C3CCCC3)C(=O)N(C)[C@H](C(=O)N(C)CCOC)CC(=O)N(C)[C@@H](CC3CC3)C(=O)N[C@@H]([C@@H](C)CC)C(=O)N(C)CC(=O)N(C)[C@H]3C/C=C\CCN(C3=O)[C@@H](Cc3ccc(C(F)(F)F)cc3)C(=O)N(C)CC(=O)N[C@@H](CCc3ccc(Cl)c(Cl)c3)C(=O)N2C1` [PP1329], in experiment [1], the “NRAS/KRAS (ratio of KD value for NRAS to KD value for KRAS)” value is on record as “AA (a compound having 20 or more is denoted as AA)”. In addition, the “HRAS/KRAS (ratio of KD value for HRAS to KD value for KRAS)” value in experiment [2] is “A (a compound having 10 or more and less than 20 is denoted as A)”. In experiment [3], the Kd was found to be 0.24 nM. In addition, half-maximal inhibition in experiment [4] (IC50) required 34.5 nM.

In the case of `CC[C@H](C)[C@@H]1NC(=O)[C@H](CC)N(C)C(=O)C[C@@H](C(=O)N(C)C)N(C)C(=O)[C@H](C2CCCC2)N(C)C(=O)C2(CCCC2)NC(=O)[C@@H]2CCCN2C(=O)[C@H](CCc2ccc(C(F)(F)F)c(Cl)c2)NC(=O)CN(C)C(=O)[C@H](Cc2ccc(C(F)(F)F)cc2)N2C[C@H](C)CC[C@@H](C2=O)N(C)C(=O)CN(C)C1=O` [PP1336], the “NRAS/KRAS (ratio of KD value for NRAS to KD value for KRAS)” value in experiment [1] was “B (a compound having 3 or more and less than 10 is denoted as B)”. For the same compound, in experiment [2], the “HRAS/KRAS (ratio of KD value for HRAS to KD value for KRAS)” value is “B (a compound having 3 or more and less than 10 is denoted as B)”. For the same compound, the Kd in experiment [3] is 0.074 nM. In experiment [4], the IC50 turned out to be 10.8 nM.

On to `CC[C@H](C)[C@@H]1NC(=O)[C@H](CC)N(C)C(=O)C[C@@H](C(=O)N2CCOCC2)N(C)C(=O)[C@H](C2CCCC2)N(C)C(=O)C2(CCCC2)NC(=O)[C@@H]2CCCN2C(=O)[C@H](CCc2ccc(C(F)(F)F)c(Cl)c2)NC(=O)CN(C)C(=O)[C@H](Cc2ccc(C(F)(F)F)cc2)N2C[C@H](C)CC[C@@H](C2=O)N(C)C(=O)CN(C)C1=O` [PP1337], for which the “NRAS/KRAS (ratio of KD value for NRAS to KD value for KRAS)” value in experiment [1] was “B (a compound having 3 or more and less than 10 is denoted as B)”. Besides, in experiment [2], the “HRAS/KRAS (ratio of KD value for HRAS to KD value for KRAS)” value is “B (a compound having 3 or more and less than 10 is denoted as B)”. In experiment [3], the Kd stood at 0.17 nM. The same compound yielded an IC50 in experiment [4] of 29.8 nM.

(Values after patent US20240158446A1, “CYCLIC COMPOUND HAVING SELECTIVE INHIBITORY ACTION ON KRAS OVER HRAS AND NRAS” (CHUGAI SEIYAKU KABUSHIKI KAISHA, priority 2021, published 2024).)
